Measurements: US8822517B2, “Arylosulfonamides for the treatment of CNS diseases” (Adamed SP. Z O.O., priority 2010, dated 2014)

Tests used:
dopaminergic D2 receptor = dopaminergic D2 receptor (Homo sapiens, UniProt P14416); assay: Binding assay D2S (h), [3H]methyl-spiperone, HEK-293 cells; set-up: expressed in transfected cells; host or cells: HEK-293 cells; details: read-out: D2 [%]
Outline: (§1)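 Radioligand displacement at 1×10^−6 M compound, with detection by scintillation counting. Nonspecific signal is measured using an excess of non-radioactive ligand.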

adrenergic α1 receptor = assay: Binding assay α1 (non-selective), [3H]prazosin, rat cerebral cortex; details: percent inhibition of control specific binding; compounds tested at 1×10^−6 M
Outline: as §1

[1] = target: T1, serotonine transporter (SERT) receptor (Homo sapiens, UniProt P31645); assay: Binding assay SERT (h), [3H]imipramine, CHO cells; details: read-out: SERT [%]
T1 construct: expressed in transfected cells; host or cells: CHO cells
T1 sequence (P31645 whole entry): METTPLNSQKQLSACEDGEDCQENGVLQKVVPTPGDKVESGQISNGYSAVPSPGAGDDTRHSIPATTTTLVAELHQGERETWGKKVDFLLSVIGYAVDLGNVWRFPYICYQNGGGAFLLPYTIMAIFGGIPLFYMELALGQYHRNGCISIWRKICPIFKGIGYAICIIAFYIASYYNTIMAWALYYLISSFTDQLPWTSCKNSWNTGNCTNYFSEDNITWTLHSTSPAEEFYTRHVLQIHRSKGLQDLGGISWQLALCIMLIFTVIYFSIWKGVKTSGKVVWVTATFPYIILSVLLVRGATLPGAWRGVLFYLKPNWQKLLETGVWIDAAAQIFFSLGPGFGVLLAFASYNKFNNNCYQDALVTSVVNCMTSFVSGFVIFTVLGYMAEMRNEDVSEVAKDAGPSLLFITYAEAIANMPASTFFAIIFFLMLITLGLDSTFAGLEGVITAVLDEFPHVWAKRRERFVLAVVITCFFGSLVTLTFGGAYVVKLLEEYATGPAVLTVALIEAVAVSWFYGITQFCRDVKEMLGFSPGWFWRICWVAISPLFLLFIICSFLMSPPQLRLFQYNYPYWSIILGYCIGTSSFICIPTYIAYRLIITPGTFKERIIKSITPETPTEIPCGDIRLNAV
Outline: as §1

[2] = target: serotoninergic 5-HT6 receptor (Homo sapiens, UniProt P50406); assay: Binding assay 5-HT6 (h), [3H]LSD, CHO cells; set-up: expressed in transfected cells; host or cells: CHO cells; details: read-out: 5-HT6
Chain of serotoninergic 5-HT6 receptor (P50406 whole entry): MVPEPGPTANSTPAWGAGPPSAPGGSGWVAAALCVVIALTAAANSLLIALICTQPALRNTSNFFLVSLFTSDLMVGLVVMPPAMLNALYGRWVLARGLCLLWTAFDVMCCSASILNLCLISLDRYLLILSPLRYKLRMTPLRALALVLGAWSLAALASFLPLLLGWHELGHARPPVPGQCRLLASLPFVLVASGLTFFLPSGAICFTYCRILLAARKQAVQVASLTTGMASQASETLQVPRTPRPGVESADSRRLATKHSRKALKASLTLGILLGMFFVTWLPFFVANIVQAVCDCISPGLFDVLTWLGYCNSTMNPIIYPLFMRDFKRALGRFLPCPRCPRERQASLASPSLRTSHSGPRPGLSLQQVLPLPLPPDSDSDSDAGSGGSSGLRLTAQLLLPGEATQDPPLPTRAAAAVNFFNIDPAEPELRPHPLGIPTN
Outline: as §1

dopaminergic D3 receptor = dopaminergic D3 receptor (Homo sapiens, UniProt P35462); assay: Binding assay D3 (h), [3H]methyl-spiperone, CHO cells; set-up: expressed in transfected cells; host or cells: CHO cells; details: read-out: D3 [%]
Chain of dopaminergic D3 receptor (P35462 whole entry): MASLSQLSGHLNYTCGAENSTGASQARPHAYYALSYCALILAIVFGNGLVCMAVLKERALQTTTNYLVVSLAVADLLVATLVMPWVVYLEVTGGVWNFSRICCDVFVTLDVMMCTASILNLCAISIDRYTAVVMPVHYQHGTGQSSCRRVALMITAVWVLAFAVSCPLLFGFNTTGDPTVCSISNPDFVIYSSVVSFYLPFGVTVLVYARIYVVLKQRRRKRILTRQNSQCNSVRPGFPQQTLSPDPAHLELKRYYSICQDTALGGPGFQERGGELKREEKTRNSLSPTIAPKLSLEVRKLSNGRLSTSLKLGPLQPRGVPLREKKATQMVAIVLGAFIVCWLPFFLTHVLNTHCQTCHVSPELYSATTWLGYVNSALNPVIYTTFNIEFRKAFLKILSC
Outline: as §1

[3] = target: serotoninergic 5-HT7 receptor (Homo sapiens, UniProt P34969); assay: Binding assay 5-HT7 (h), [3H]LSD, CHO cells; set-up: expressed in transfected cells; host or cells: CHO cells; details: read-out: 5-HT7
Chain of serotoninergic 5-HT7 receptor (P34969 whole entry): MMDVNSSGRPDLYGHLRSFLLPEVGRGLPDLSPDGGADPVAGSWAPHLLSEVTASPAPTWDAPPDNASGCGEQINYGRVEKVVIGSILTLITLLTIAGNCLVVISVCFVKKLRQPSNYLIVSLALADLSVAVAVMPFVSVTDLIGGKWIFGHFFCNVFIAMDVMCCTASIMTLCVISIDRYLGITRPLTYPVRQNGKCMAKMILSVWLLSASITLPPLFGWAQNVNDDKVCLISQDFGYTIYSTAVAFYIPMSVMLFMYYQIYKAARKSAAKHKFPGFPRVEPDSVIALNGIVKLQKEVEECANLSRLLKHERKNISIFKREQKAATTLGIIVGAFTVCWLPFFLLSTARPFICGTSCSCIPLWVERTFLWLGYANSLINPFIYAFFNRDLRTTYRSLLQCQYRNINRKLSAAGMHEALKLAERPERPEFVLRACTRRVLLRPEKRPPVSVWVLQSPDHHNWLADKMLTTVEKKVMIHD
Outline: as §1

[4] = target: serotoninergic 5-HT2A receptor (Homo sapiens, UniProt P28223); assay: Binding assay 5-HT2A (h), [3H]ketanserin, HEK-293 cells; set-up: expressed in transfected cells; host or cells: HEK-293 cells; details: read-out: 5-HT2A
Chain of serotoninergic 5-HT2A receptor (P28223 whole entry): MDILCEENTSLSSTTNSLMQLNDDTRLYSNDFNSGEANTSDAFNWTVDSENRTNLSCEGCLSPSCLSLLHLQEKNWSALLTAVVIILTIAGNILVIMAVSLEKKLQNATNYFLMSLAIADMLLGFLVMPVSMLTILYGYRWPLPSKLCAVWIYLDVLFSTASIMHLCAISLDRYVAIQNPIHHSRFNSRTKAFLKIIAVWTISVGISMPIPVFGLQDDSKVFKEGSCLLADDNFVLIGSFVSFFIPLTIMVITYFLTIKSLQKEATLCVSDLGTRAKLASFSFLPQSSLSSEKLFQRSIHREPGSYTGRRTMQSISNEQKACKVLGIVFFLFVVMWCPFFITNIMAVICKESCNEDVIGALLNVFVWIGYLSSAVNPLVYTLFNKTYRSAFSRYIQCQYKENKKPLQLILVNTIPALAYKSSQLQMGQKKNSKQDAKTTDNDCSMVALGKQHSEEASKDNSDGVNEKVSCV
Outline: as §1

[5] = target: T2, serotoninergic 5-HT1A receptor (Homo sapiens, UniProt P08908); assay: Binding assay 5-HT1A (h), [3H]8-OH-DPAT, HEK-293 cells; set-up: expressed in transfected cells; host or cells: HEK-293 cells; details: read-out: 5-HT1A
T2 sequence (P08908 1-422): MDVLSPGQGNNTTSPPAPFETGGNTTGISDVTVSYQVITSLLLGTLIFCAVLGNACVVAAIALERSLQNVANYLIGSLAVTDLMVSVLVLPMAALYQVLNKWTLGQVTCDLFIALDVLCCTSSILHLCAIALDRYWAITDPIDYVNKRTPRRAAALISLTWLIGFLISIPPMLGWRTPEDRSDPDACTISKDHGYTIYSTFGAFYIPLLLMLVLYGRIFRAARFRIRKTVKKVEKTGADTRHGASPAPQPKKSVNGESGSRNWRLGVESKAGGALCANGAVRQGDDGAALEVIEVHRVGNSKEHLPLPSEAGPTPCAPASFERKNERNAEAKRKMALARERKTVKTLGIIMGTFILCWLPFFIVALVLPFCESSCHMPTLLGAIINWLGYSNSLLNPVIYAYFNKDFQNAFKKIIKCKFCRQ
Outline: as §1

Chain of dopaminergic D2 receptor (P14416 1-414 isoform P14416-2): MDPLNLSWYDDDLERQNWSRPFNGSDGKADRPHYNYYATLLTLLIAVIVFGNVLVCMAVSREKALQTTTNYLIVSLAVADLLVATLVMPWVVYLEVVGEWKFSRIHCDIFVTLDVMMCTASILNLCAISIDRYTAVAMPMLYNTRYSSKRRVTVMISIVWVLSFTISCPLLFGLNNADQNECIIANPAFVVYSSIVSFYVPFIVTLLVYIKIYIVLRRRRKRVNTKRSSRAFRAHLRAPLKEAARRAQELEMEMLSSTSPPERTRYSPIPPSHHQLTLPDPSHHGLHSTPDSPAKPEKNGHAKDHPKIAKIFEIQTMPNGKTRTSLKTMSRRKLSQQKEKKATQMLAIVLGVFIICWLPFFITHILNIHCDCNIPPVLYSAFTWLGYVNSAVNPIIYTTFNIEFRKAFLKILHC

In the case of `O=S(=O)(NCCCN1CCC(c2noc3cc(F)ccc23)CC1)c1csc2ccccc12` [Compound 346, N-[3-[4-(6-Fluoro-1,2-benzoxazol-3-yl)piperidin-1-yl]propyl]benzothiophene-3-sulphonamide], the inhibition at 1 µM (dopaminergic D2 receptor) is reported as 100%, the “α1 [%]” value (adrenergic α1 receptor) is reported as 103% and the inhibition at 1 µM [1] is reported as 17%. The inhibition at 1 µM [2] was 95%, the inhibition at 1 µM (dopaminergic D3 receptor) was 93% and the inhibition at 1 µM [3] was 87%. For the same compound, the inhibition at 1 µM [4] was 97% and the inhibition at 1 µM [5] was 51%.

`O=S(=O)(NCCCN1CCC(c2noc3cc(F)ccc23)CC1)c1cc2ccccc2o1` [Compound 349, N-[3-[4-(6-Fluoro-1,2-benzoxazol-3-yl)piperidin-1-yl]propyl]benzofuran-2-sulphonamide] was tested, and the inhibition at 1 µM (dopaminergic D2 receptor) was 93%, the “α1 [%]” value (adrenergic α1 receptor) was 98% and the inhibition at 1 µM [1] was 0%. It also gave an inhibition at 1 µM [2] of 87%, an inhibition at 1 µM (dopaminergic D3 receptor) of 100% and an inhibition at 1 µM [3] of 91%. For the same compound, the inhibition at 1 µM [4] was 108% and the inhibition at 1 µM [5] was 49%.

With `O=S(=O)(NCCCN1CCC(c2noc3cc(F)ccc23)CC1)c1ccc2c(c1)CCO2` [Compound 350, N-[3-[4-(6-Fluoro-1,2-benzoxazol-3-yl)piperidin-1-yl]propyl]-2,3-dihydrobenzofuran-5-sulphonamide] the inhibition at 1 µM (dopaminergic D2 receptor) was 102%, the “α1 [%]” value (adrenergic α1 receptor) was 102% and the inhibition at 1 µM [1] was -5%. The inhibition at 1 µM [2] was 96%, the inhibition at 1 µM (dopaminergic D3 receptor) was 95% and the inhibition at 1 µM [3] was 87%. For the same compound, the inhibition at 1 µM [4] was 95% and the inhibition at 1 µM [5] was 57%.

In the case of `O=S(=O)(NCCCN1CCC(c2noc3cc(F)ccc23)CC1)c1cccc2scnc12` [Compound 351, N-[3-[4-(6-Fluoro-1,2-benzoxazol-3-yl)piperidin-1-yl]propyl]-1,3-benzothiazole-4-sulphonamide], the inhibition at 1 µM (dopaminergic D2 receptor) is reported as 101%, the “α1 [%]” value (adrenergic α1 receptor) is reported as 97% and the inhibition at 1 µM [1] is reported as 31%. It also gave an inhibition at 1 µM [2] of 89%, an inhibition at 1 µM (dopaminergic D3 receptor) of 103% and an inhibition at 1 µM [3] of 94%. The inhibition at 1 µM [4] was 103% and the inhibition at 1 µM [5] was 71%.

For `O=c1[nH]c2ccc(S(=O)(=O)NCCCN3CCC(c4noc5cc(F)ccc45)CC3)cc2o1` [Compound 353, N-[3-[4-(6-Fluoro-1,2-benzoxazol-3-yl)piperidin-1-yl]propyl]-2-oxo-3H-1,3-benzoxazole-6-sulphonamide], the inhibition at 1 µM (dopaminergic D2 receptor) was 91%, the “α1 [%]” value (adrenergic α1 receptor) was 103% and the inhibition at 1 µM [1] was -1%. For the same compound, the inhibition at 1 µM [2] was 58%, the inhibition at 1 µM (dopaminergic D3 receptor) was 97% and the inhibition at 1 µM [3] was 83%. The inhibition at 1 µM [4] was 101% and the inhibition at 1 µM [5] was 48%.

`O=S(=O)(NCCCN1CCC(c2noc3cc(F)ccc23)CC1)c1ccc2c(c1)OCO2` [Compound 354, N-[3-[4-(6-Fluoro-1,2-benzoxazol-3-yl)piperidin-1-yl]propyl]-1,3-benzodioxole-5-sulphonamide] was tested, and the inhibition at 1 µM (dopaminergic D2 receptor) was 83%, the “α1 [%]” value (adrenergic α1 receptor) was 103% and the inhibition at 1 µM [1] was 6%. It also gave an inhibition at 1 µM [2] of 86%, an inhibition at 1 µM (dopaminergic D3 receptor) of 88% and an inhibition at 1 µM [3] of 96%. For the same compound, the inhibition at 1 µM [4] was 86% and the inhibition at 1 µM [5] was 59%.

For `O=S(=O)(NCCCN1CCC(c2noc3cc(F)ccc23)CC1)c1ccc2c(c1)OCCO2` [Compound 355, N-[3-[4-(6-Fluoro-1,2-benzoxazol-3-yl)piperidin-1-yl]propyl]-2,3-dihydro-1,4-benzodioxine-6-sulphonamide], the inhibition at 1 µM (dopaminergic D2 receptor) was 99%, the “α1 [%]” value (adrenergic α1 receptor) was 105% and the inhibition at 1 µM [1] was 45%. For the same compound, the inhibition at 1 µM [2] was 75%, the inhibition at 1 µM (dopaminergic D3 receptor) was 97% and the inhibition at 1 µM [3] was 84%. The inhibition at 1 µM [4] was 103% and the inhibition at 1 µM [5] was 60%.

With `O=S(=O)(NCCCCN1CCN(c2cccc3[nH]ccc23)CC1)c1cccc(C(F)(F)F)c1` [Compound 361, N-[4-[4-(1H-Indol-4-yl)piperazin-1-yl]butyl]-3-(trifluoromethyl)benzenesulphonamide] the inhibition at 1 µM (dopaminergic D2 receptor) was 99%, the “α1 [%]” value (adrenergic α1 receptor) was 98% and the inhibition at 1 µM [1] was 6%. For the same compound, the inhibition at 1 µM [2] was 70%, the inhibition at 1 µM (dopaminergic D3 receptor) was 98% and the inhibition at 1 µM [3] was 86%. For the same compound, the inhibition at 1 µM [4] was 49% and the inhibition at 1 µM [5] was 95%.

With `N#Cc1cccc(S(=O)(=O)NCCCCN2CCN(c3cccc4[nH]ccc34)CC2)c1` [Compound 362, 3-Cyano-N-[4-[4-(1H-indol-4-yl)piperazin-1-yl]butyl]benzenesulphonamide] the inhibition at 1 µM (dopaminergic D2 receptor) was 101%, the “α1 [%]” value (adrenergic α1 receptor) was 96% and the inhibition at 1 µM [1] was 37%. For the same compound, the inhibition at 1 µM [2] was 69%, the inhibition at 1 µM (dopaminergic D3 receptor) was 102% and the inhibition at 1 µM [3] was 88%. The inhibition at 1 µM [4] was 41% and the inhibition at 1 µM [5] was 91%.

For `Cc1c(S(=O)(=O)NCCCCN2CCN(c3cccc4[nH]ccc34)CC2)sc2ccc(F)cc12` [Compound 364, 5-Fluoro-N-[4-[4-(1H-indol-4-yl)piperazin-1-yl]butyl]-3-methylbenzothiophene-2-sulphonamide], the inhibition at 1 µM (dopaminergic D2 receptor) was 100%, the “α1 [%]” value (adrenergic α1 receptor) was 87% and the inhibition at 1 µM [1] was 35%. It also gave an inhibition at 1 µM [2] of 80%, an inhibition at 1 µM (dopaminergic D3 receptor) of 100% and an inhibition at 1 µM [3] of 91%. The inhibition at 1 µM [4] was 89% and the inhibition at 1 µM [5] was 92%.

`Cc1[nH]c2ccc(Cl)cc2c1C1=CCN(CCCCNS(=O)(=O)c2cccc3ccccc23)CC1` [Compound 366, N-[4-[4-(5-Chloro-2-methyl-1H-indol-3-yl)-3,6-dihydro-2H-pyridin-1-yl]butyl]-naphthalene-1-sulphonamide] was tested, and the inhibition at 1 µM (dopaminergic D2 receptor) was 54%, the “α1 [%]” value (adrenergic α1 receptor) was 8% and the inhibition at 1 µM [1] was 8%. It also gave an inhibition at 1 µM [2] of 98%, an inhibition at 1 µM (dopaminergic D3 receptor) of 81% and an inhibition at 1 µM [3] of 53%. It also gave an inhibition at 1 µM [4] of 49% and an inhibition at 1 µM [5] of 34%.

With `Cc1[nH]c2ccc(Cl)cc2c1C1=CCN(CCCCNS(=O)(=O)c2cccc(O)c2)CC1` [Compound 369, N-[4-[4-(5-Chloro-2-methyl-1H-indol-3-yl)-3,6-dihydro-2H-pyridin-1-yl]butyl]-3-hydroxybenzenesulphonamide] the inhibition at 1 µM (dopaminergic D2 receptor) was 67%, the “α1 [%]” value (adrenergic α1 receptor) was 50% and the inhibition at 1 µM [1] was 29%. It also gave an inhibition at 1 µM [2] of 99%, an inhibition at 1 µM (dopaminergic D3 receptor) of 97% and an inhibition at 1 µM [3] of 7%. The inhibition at 1 µM [4] was 79% and the inhibition at 1 µM [5] was 62%.

With `O=S(=O)(NCCCCN1CCN(c2cccc3c2OCCO3)CC1)c1cccc2ccccc12` [Compound 385, N-[4-[4-(2,3-Dihydro-1,4-benzodioxin-5-yl)piperazin-1-yl]butyl]naphthalene-1-sulphonamide] the inhibition at 1 µM (dopaminergic D2 receptor) was 75%, the “α1 [%]” value (adrenergic α1 receptor) was 96% and the inhibition at 1 µM [1] was 6%. The inhibition at 1 µM [2] was 10%, the inhibition at 1 µM (dopaminergic D3 receptor) was 89% and the inhibition at 1 µM [3] was 99%. For the same compound, the inhibition at 1 µM [4] was 77% and the inhibition at 1 µM [5] was 103%.

With `O=S(=O)(NCCCCN1CCN(c2cccc3c2OCCO3)CC1)c1ccc2ccccc2c1` [Compound 386, N-[4-[4-(2,3-Dihydro-1,4-benzodioxin-5-yl)piperazin-1-yl]butyl]naphthalene-2-sulphonamide] the inhibition at 1 µM (dopaminergic D2 receptor) was 70%, the “α1 [%]” value (adrenergic α1 receptor) was 96% and the inhibition at 1 µM [1] was -5%. The inhibition at 1 µM [2] was 1%, the inhibition at 1 µM (dopaminergic D3 receptor) was 88% and the inhibition at 1 µM [3] was 82%. For the same compound, the inhibition at 1 µM [4] was 65% and the inhibition at 1 µM [5] was 96%.

In the case of `O=S(=O)(NCCCCN1CCN(c2cccc3c2OCCO3)CC1)c1cccc(F)c1` [Compound 388, N-[4-[4-(2,3-Dihydro-1,4-benzodioxin-5-yl)piperazin-1-yl]butyl]-3-fluorobenzenesulphonamide], the inhibition at 1 µM (dopaminergic D2 receptor) is reported as 50%, the “α1 [%]” value (adrenergic α1 receptor) is reported as 91% and the inhibition at 1 µM [1] is reported as -28%. The inhibition at 1 µM [2] was -20%, the inhibition at 1 µM (dopaminergic D3 receptor) was 83% and the inhibition at 1 µM [3] was 90%. For the same compound, the inhibition at 1 µM [4] was 19% and the inhibition at 1 µM [5] was 92%.

For `O=S(=O)(NCCCCN1CCN(c2cccc3c2OCCO3)CC1)c1ccc(F)c(F)c1` [Compound 389, N-[4-[4-(2,3-Dihydro-1,4-benzodioxin-5-yl)piperazin-1-yl]butyl]-3,4-difluorobenzenesulphonamide], the inhibition at 1 µM (dopaminergic D2 receptor) was 50%, the “α1 [%]” value (adrenergic α1 receptor) was 93% and the inhibition at 1 µM [1] was 44%. The inhibition at 1 µM [2] was 19%, the inhibition at 1 µM (dopaminergic D3 receptor) was 85% and the inhibition at 1 µM [3] was 93%. For the same compound, the inhibition at 1 µM [4] was 56% and the inhibition at 1 µM [5] was 118%.

`O=S(=O)(NCCCCN1CCN(c2cccc3c2OCCO3)CC1)c1cccc(Cl)c1` [Compound 390, 3-Chloro-N-[4-[4-(2,3-dihydro-1,4-benzodioxin-5-yl)piperazin-1-yl]butyl]benzenesulphonamide] was tested, and the inhibition at 1 µM (dopaminergic D2 receptor) was 61%, the “α1 [%]” value (adrenergic α1 receptor) was 73% and the inhibition at 1 µM [1] was -15%. The inhibition at 1 µM [2] was 26%, the inhibition at 1 µM (dopaminergic D3 receptor) was 81% and the inhibition at 1 µM [3] was 66%. It also gave an inhibition at 1 µM [4] of 59% and an inhibition at 1 µM [5] of 101%.
